# From patent US20250340551A1, “SMALL MOLECULE MODULATORS OF STAT6” (Gilead Sciences, Inc., priority 2024, published 2025)
# How the values were obtained:
# [1] = tested on: Eotaxin-3 (CCL26) release in human whole blood stimulated with IL-4; experiment: Human whole blood eotaxin-3 assay (IL-4 stimulated, Eotaxin-3 release); type: cell-based; settings: for Emax: 48 h
# Outline: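 Lithium-heparin blood preincubated 2 h at 37° C with 4-fold compound dilutions (0.5% DMSO, triplicates), then stimulated with 400 pM recombinant human IL-4 for 48 h. Eotaxin-3 in plasma supernatant measured by MSD immunoassay.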
# human STAT6 = human STAT6 (Homo sapiens (Human), UniProt P42226); experiment: Surface plasmon resonance assay (Biacore 8K, binding to immobilized STAT6); settings: human STAT6 aa122-658, N-terminal His-tag, CM5 chip, 25° C.; geometric mean; read-out: STAT6 SPR Kd
# Outline: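 Run at 25° C with His-tagged STAT6 aa122-658 (insect-cell expressed) amine-coupled to a CM5 chip, reference-subtracted, in PBS-P+ with 2% DMSO. Multi-cycle kinetics: 60 sec. contact, up to 300 sec. dissociation. Affinity fitted from late report-point binding isotherms, with Rmax both free and fixed to theoretical 1:1.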
# human STAT6, sequence (P42226 122-658): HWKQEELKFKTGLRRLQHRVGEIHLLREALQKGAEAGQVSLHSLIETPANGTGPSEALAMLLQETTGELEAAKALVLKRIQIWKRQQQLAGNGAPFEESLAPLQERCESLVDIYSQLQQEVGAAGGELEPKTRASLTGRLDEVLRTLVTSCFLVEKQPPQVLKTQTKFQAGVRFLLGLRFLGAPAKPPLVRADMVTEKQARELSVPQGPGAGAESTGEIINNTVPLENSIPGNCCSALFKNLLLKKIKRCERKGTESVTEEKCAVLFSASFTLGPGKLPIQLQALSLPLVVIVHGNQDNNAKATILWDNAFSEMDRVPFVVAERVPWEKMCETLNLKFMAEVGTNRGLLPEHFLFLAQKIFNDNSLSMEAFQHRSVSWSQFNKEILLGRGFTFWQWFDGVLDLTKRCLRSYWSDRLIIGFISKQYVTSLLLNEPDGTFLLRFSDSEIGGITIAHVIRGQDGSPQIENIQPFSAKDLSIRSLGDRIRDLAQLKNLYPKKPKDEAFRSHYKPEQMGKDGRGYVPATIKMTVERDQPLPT
Molecule,Emax ([1]; Homo sapiens),Kd (human STAT6),"EC50 ([1]; Homo sapiens, Hec50, 48 h)","EC50 ([1]; human whole blood, 400 pM recombinant human IL-4, 48 h, EC50 provided for compounds with >80% Emax, geometric mean)","Eotaxin-3 Emax (%) ([1]; human whole blood, 400 pM recombinant human IL-4, 48 h, Emax provided for compounds with <80% Emax, geometric mean)"
"CNc1cc(C)c(-c2ccnc3c2cc(CN2CCC(c4ccc(C(=O)N(C)C)cc4)CC2)n3C)cn1 [Example 1k51, N,N-Dimethyl-4-[1-[[1-methyl-4-[4-methyl-6-(methylamino)-3-pyridyl]pyrrolo[2,3-b]pyridin-2-yl]methyl]-4-piperidyl]benzamide]",43%,0.0805 µM,,,
"CNc1ccc(-c2ccnc3c2cc(CN2CCC(c4ccc(C(=O)N(C)C)cc4)CC2)n3C)nc1 [Example 1k69, N,N-Dimethyl-4-(1-((1-methyl-4-(5-(methylamino)pyridin-2-yl)-1H-pyrrolo[2,3-b]pyridin-2-yl)methyl)piperidin-4-yl)benzamide]",72%,0.0535 µM,,,
"CN(C)C(=O)c1ccc(C2CCN(Cc3cc4c(-c5cnc(N)c(F)c5)ccnc4n3C)CC2)cc1 [Example 1k14, 4-[1-[[4-(6-Amino-5-fluoro-3-pyridyl)-1-methyl-pyrrolo[2,3-b]pyridin-2-yl]methyl]-4-piperidyl]-N,N-dimethyl-benzamide]",65.6%,0.0372 µM,,,
"CNc1ccc(-c2ccnc3c2cc([C@H](C)N2CCC(c4ccc(C(=O)N(C)C)cc4)CC2)n3C)nc1 [Example 1o24, (S)—N,N-dimethyl-4-(1-(1-(1-methyl-4-(5-(methylamino)pyridin-2-yl)-1H-pyrrolo[2,3-b]pyridin-2-yl)ethyl)piperidin-4-yl)benzamide]",,0.0312 µM,0.444 µM,,
"Cc1cc(C(=O)N(C)C)ccc1C1CCN([C@H](C)c2cc3c(-c4ccc(N)cn4)ccnc3n2C)CC1 [Example 1af18, (R)-4-(1-(1-(4-(5-aminopyridin-2-yl)-1-methyl-1H-pyrrolo[2,3-b]pyridin-2-yl)ethyl)piperidin-4-yl)-N,N,3-trimethylbenzamide]",,0.0314 µM,2.91 µM,,
"Cc1cc(C(=O)N(C)C)ccc1C1=CCN([C@@H](C)c2cc3c(-c4ccc(N)nc4C#N)ccnc3n2C)CC1 [Example 1af44, (S)-4-(1-(1-(4-(6-Amino-2-cyanopyridin-3-yl)-1-methyl-1H-pyrrolo[2,3-b]-pyridin-2-yl)ethyl)-1,2,3,6-tetrahydropyridin-4-yl)-N,N,3-trimethylbenzamide]",,0.352 µM,15.9 µM,,
"CNc1ccc(-c2ccnc3c2cc(CN2CCC(c4ccc(C(=O)N(C)C)cc4)CC2)n3C)nn1 [Example 1k71, N,N-Dimethyl-4-[1-[[1-methyl-4-[6-(methylamino)pyridazin-3-yl]pyrrolo[2,3-b]pyridin-2-yl]methyl]-4-piperidyl]benzamide]",78.8%,0.0226 µM,,,
"CN(C)C(=O)c1ccc(C2CCN(Cc3cc4c(-c5cnc(N)nc5)ccnc4n3C)CC2)cc1 [Example 1k13, 4-[1-[[4-(2-Aminopyrimidin-5-yl)-1-methyl-pyrrolo[2,3-b]pyridin-2-yl]methyl]-4-piperidyl]-N,N-dimethyl-benzamide]",,0.0877 µM,14.2 µM,,
"C[C@H](c1cc2c(-c3ccc(N)nc3C#N)ccnc2n1C)N1CCC(c2ccc(C(=O)N(C)C)cc2)CC1 [Example 1af14, (R)-4-(1-(1-(4-(6-amino-2-cyanopyridin-3-yl)-1-methyl-1H-pyrrolo[2,3-b]pyridin-2-yl)ethyl)piperidin-4-yl)-N,N-dimethylbenzamide]",,0.0185 µM,0.135 µM,,
"CN(C)C(=O)c1ccc(C2CCN(Cc3cc4c(-c5ccc(N)c(C(=O)O)c5)ccnc4n3C)CC2)cc1 [Example 1k6, 2-Amino-5-[2-[[4-[4-(dimethylcarbamoyl)phenyl]-1-piperidyl]methyl]-1-methyl-pyrrolo[2,3-b]pyridin-4-yl]benzoic acid]",57%,0.00905 µM,,,
"CNc1ccc(-c2ccnc3c2cc([C@H](C)N2CCC(c4ccc(C(=O)N(C)C)cc4)CC2)n3C)c(C#N)n1 [Example 1af39, (S)-4-(1-(1-(4-(2-xyano-6-(methylamino)pyridin-3-yl)-1-methyl-1H-pyrrolo-[2,3-b]pyridin-2-yl)ethyl)piperidin-4-yl)-N,N-dimethylbenzamide]",,0.0327 µM,0.115 µM,,
"N,N-Dimethyl-4-[1-[[1-methyl-4-[6-(methylamino)-3-pyridyl]pyrrolo[2,3-b]pyridin-2-yl]methyl]-4-piperidyl]benzamide [Example 1k37]",,0.016 µM,,7.16 µM,
"CC(=O)Nc1ccc(-c2ccnc3c2cc(CN2CC[C@@H](c4ccc(C(=O)N(C)C)cc4)[C@@H](F)C2)n3C)cc1 [Example 1r6, N,N-dimethyl-4-[(3R,4S)-1-[[4-(4-acetamidophenyl)-1-methyl-pyrrolo[2,3-b]pyridin-2-yl]methyl]-3-fluoro-4-piperidyl]benzamide]",51.2%,0.0399 µM,,,
"CNc1ccc(-c2ccnc3c2cc(CN2CCN(c4ccc(C(=O)N(C)C)cc4C)CC2)n3C)cn1 [Example 1s14, N,N,3-Trimethyl-4-[4-[[1-methyl-4-[6-(methylamino)-3-pyridyl]pyrrolo[2,3-b]pyridin-2-yl]methyl]piperazin-1-yl]benzamide]",37.2%,0.0289 µM,,,
"CNc1ccc(-c2ccnc3c2cc(CN2CC=C(c4ccc(C(=O)N(C)C)cc4C)CC2)n3C)[n+]([O-])c1 [Example 1u3, N,N,3-Trimethyl-4-[1-[[1-methyl-4-[5-(methylamino)-1-oxido-pyridin-1-ium-2-yl]pyrrolo[2,3-b]pyridin-2-yl]methyl]-3,6-dihydro-2H-pyridin-4-yl]benzamide]",,0.016 µM,0.104 µM,,
"C[C@H](c1cc2c(-c3ccc(N)cn3)ccnc2n1C)N1CC=C(c2ccc(C(=O)N(C)C)cc2)CC1 [Example 1af20, (R)-4-(1-(1-(4-(5-aminopyridin-2-yl)-1-methyl-1H-pyrrolo[2,3-b]pyridin-2-yl)ethyl)-1,2,3,6-tetrahydropyridin-4-yl)-N,N-dimethylbenzamide]",76.7%,0.0404 µM,,,
"[2H]C([2H])([2H])N(C(=O)c1ccc(C2=CCN([C@H](C)c3cc4c(-c5ccc(N)nc5C#N)ccnc4n3C)CC2)c(C)c1)C([2H])([2H])[2H] [Example 1af26, (R)-4-(1-(1-(4-(6-amino-2-cyanopyridin-3-yl)-1-methyl-1H-pyrrolo[2,3-b]pyridin-2-yl)ethyl)-1,2,3,6-tetrahydropyridin-4-yl)-3-methyl-N,N-bis(methyl-d3)benzamide]",,0.02 µM,0.0654 µM,,
"4-[1-[[4-(6-Amino-2-methoxy-3-pyridyl)-1-methyl-pyrrolo[2,3-b]pyridin-2-yl]methyl]-4-piperidyl]-N,N-bis(trideuteriomethyl)benzamide [Example 1k44]",,0.0256 µM,,,77%
"CNc1ccc(-c2ccnc3c2cc(CN2CCC(c4ccc(C(=O)N(C)C)cc4F)CC2)n3C)nc1 [Example 1o23, 3-Fluoro-N,N-dimethyl-4-[1-[[1-methyl-4-[5-(methylamino)-2-pyridyl]pyrrolo[2,3-b]pyridin-2-yl]methyl]-4-piperidyl]benzamide]",,0.0306 µM,2.46 µM,,
"CNc1ccc(-c2ccnc3c2cc([C@@H](C)N2CCC(c4ccc(C(=O)N(C)C)cc4)CC2)n3C)cn1 (single isomer, unassigned) [Example 1af8]",,0.0146 µM,0.369 µM,,
"CNc1ccc(-c2ccnc3c2cc(CN2CC=C(c4ncc(C(=O)N(C)C)cc4C)CC2)n3C)cn1 [Example 1s12, N,N,5-Trimethyl-6-[1-[[1-methyl-4-[6-(methylamino)-3-pyridyl]pyrrolo[2,3-b]pyridin-2-yl]methyl]-3,6-dihydro-2H-pyridin-4-yl]pyridine-3-carboxamide]",,0.0321 µM,4.96 µM,,
"CNc1ccc(-c2ccnc3c2cc(CN2CCC(c4ccc(C(=O)N(C)C)cc4)CC2=O)n3C)cn1 (centres unmarked) [Example 1s2, N,N-Dimethyl-4-[1-[[1-methyl-4-[6-(methylamino)-3-pyridyl]pyrrolo[2,3-b]pyridin-2-yl]methyl]-2-oxo-4-piperidyl]benzamide]",54.4%,0.0358 µM,,,
"CNc1ccc(-c2ccnc3c2cc(CN2CC=C(c4c(C)cc(C(=O)N(C)C)cc4C)CC2)n3C)cn1 [Example 1s10, N,N,3,5-Tetramethyl-4-[1-[[1-methyl-4-[6-(methylamino)-3-pyridyl]pyrrolo[2,3-b]pyridin-2-yl]methyl]-3,6-dihydro-2H-pyridin-4-yl]benzamide]",,0.0404 µM,0.205 µM,,
"C[C@H]1C[C@@H](c2ccc(C(=O)N(C)C)cc2)CCN1Cc1cc2c(-c3ccc(N)cn3)ccnc2n1C (single isomer, unassigned) [Example 1q6]",,0.0474 µM,3.08 µM,,
"CNc1ccc(-c2ccnc3c2cc(CN2CC[C@@H](c4ccc(C(=O)N(C)C)cc4)C[C@H]2C)n3C)nc1 [Example 1o26, N,N-dimethyl-4-((2R,4R)-2-methyl-1-((1-methyl-4-(5-(methylamino)-pyridin-2-yl)-1H-pyrrolo[2,3-b]pyridin-2-yl)methyl)piperidin-4-yl)benzamide]",,0.0324 µM,0.458 µM,,
